# Source: US12398123B2, “Chemical inhibition of the E3 ligase subunit FBXO7 confers neuroprotection and anti-inflammatory activity by stabilizing mitochondria” (University of Pittsburgh—Of the Commonwealth System of …, priority 2017, dated 2025)
# Peptide text beside a SMILES is read from it. * marks the point of attachment. Cbz = O=C(OCc1ccccc1)*
# How the values were obtained:
# [1] = system: TNF release from human PBMCs; experiment: LPS stimulated TNF secretion from PBMCs (ELISA); format: cell-based; details: 2 h pretreatment, then LPS 10 ng/ml 4 h
# H9C2 cells [2] = experiment: CCCP triggered mitochondrial injury in H9C2 cells, Mitosense Red and Annexin V flow cytometry; format: cell-based, rat; details: 100 ng/ml 16 h, CCCP 20 μM 2 h; CCCP alone 17.2%
# PINK1 [3] = format: cell-based, human; details: SHSY5Y PINK1-Flag, compound 3 h, cycloheximide 10 μg/ml 1 h
# Excerpt: FIGS. 7A-7H. […] FIG. 7A. […] FIG. 7B. […] FIG. 7C. […] FIG. 7D-7E. […] Scale bar=100 μm.
# [4] = system: late neural progenitor cells differentiated from a human iPSC line; experiment: DMSO-induced cell death in late neural progenitor cells from an SNCA triplication iPSC line; format: cell-based; details: 5 ng/mL for 1 wk
# Protocol: Methods. Late neural progenitor cells were derived from an iPSC line from a PD patient with SNCA gene triplication, as previously described (D'Aiuto et al. Organogenesis 10(4): 365-377). […] Images were acquired with a 40× oil objective (1.30 NA) on an Olympus IX71 microscope using Olympus CellSens V1.17 with a DP80 camera. Cell death was assessed by counting condensed/fragmented nuclei. Results.
# [5] = intracerebral ventricular infusion in mice for 2 weeks (tolerability); format: in vivo, mouse; details: 10 ug/ml via intracerebral ventricular infusion for 2 weeks
# Protocol: BC 1464 was administered in artificial CSF with DMSO by intracerebroventricular pump to C5bl/6 mice.
# primary fibroblasts = experiment: 6-OHDA model in primary fibroblasts; details: 6-OHDA 300 M (unit prefix printed as image), 19 h
# [6] = system: P. aeruginosa (PA103) lung inflammatory injury; experiment: experimental pneumonia: mice given PA103 i.t.
# Pink1 [7] = experiment: Pink1 protein stability (CHX chase) in BEAS-2B cells; details: 1 μg/ml for 16 h, then CHX 40 μg/ml
# PINK1 [8] = experiment: human lung slices challenged with LPS: Pink1 immunoblotting; details: compound 4 h, then LPS 100 ng/ml 4 h
# SH-SY5Y cells = experiment: MPP+ elicited injury in SH-SY5Y cells, AlamarBlue cell viability; details: 5 μg/ml with MPP+ for 24 h, relative to BC1465
# [9] = system: cytokine release from human lung explants; experiment: human lung slices challenged with LPS: TNFα ELISA of supernatant; details: compound 4 h, then LPS 100 ng/ml 4 h
# Pink1 [10] = experiment: target validation: Pink1 levels in BEAS-2B cells with control or Fbxo7 siRNA; details: Fbxo7 siRNA 3 days, compound 18 h
# H9C2 cells [11] = experiment: tBHP-induced mitochondrial injury in H9C2 cells, MitoTracker Red flow cytometry; details: 100 ng/ml 16 h, tBHP 100 μM 45 min
# primary cortical neurons = experiment: morphological injury of GFP-transfected primary cortical neurons challenged with MPP+; details: MPP+ 24 h
# H9C2 cells [12] = experiment: mitochondrial membrane potential after CCCP in H9C2 cells, JC1 staining, confocal microscopy; details: 100 ng/ml 16 h, CCCP 20 μM 2 h
# Pink1 [13] = experiment: Pink1 protein decay in BEAS-2B cells with proteasomal or lysosomal inhibitors and CHX; format: cell-based; details: 30 min pretreatment (MG132 20 μM, leupeptin 100 μM), then CHX 40 μg/ml
# Protocol: FIGS. 1A-1E. Fbxo7 mediates Pink1 polyubiquitylation and proteasomal degradation. FIG. 1A. BEAS-2B cells were pretreated with MG132 (20 μM), leupeptin (100 μM), or diluent (control, CON) for 30 min, and then were treated with CHX (40 μg/ml) to assay protein decay. The cell lysates were obtained at the indicated time points for immunoblotting. FIG. 1B. BEAS-2B cells were nucleofected with V5-tagged Fbxo7 plasmid at indicated amounts and incubated for 48 h, the whole cell lysates were subjected to immunoblotting. FIG. 1C. BEAS-2B cells were nucleofected with 4 individual shRNAs respectively and analyzed by immunoblotting. FIG. 1D. BEAS-2B cells were nucleofected with control shRNA or Fbxo7 shRNA for 72 h, and then treated with CHX (40 μg/ml). The cells were collected at indicated time points for half-life analysis. FIG. 1E. In vitro ubiquitylation assays were performed with synthesized Pink1 combined with indicated recombinant proteins.
# Cell Culture and Transfection.
# Pink1 undergoes rapid proteolysis in cells, and the cleaved Pink1 fragment may be degraded through the N-end rule pathway. To test if full length Pink1 is subjected to ubiquitin mediated degradation, we evaluated the ability of proteasomal or lysosomal inhibitors to regulate stability of the kinase. […]
# [14] = 5 mg/kg intraperitoneal, 18 h, compared to vehicle control or BC1465
structure (smiles),measurement,setting,value
O=C(CCCn1c(SCC(=O)NCC2CCCO2)nc2ccccc2c1=O)NCc1ccccc1 (stereo not drawn) [BC1464],reduction of LPS stimulated release of TNF,[1]; 1 ng/ml,~37%
same,LPS stimulated release of TNF,[1]; 10 ng/ml,potently blocked
same,CCCP damaged (depolarized) mitochondria,H9C2 cells [2],10.5%
same,PINK1 expression in the presence of cycloheximide,PINK1 [3],stabilizes PINK1 expression
same,toxicity elicited by DMSO (condensed/fragmented nuclei),[4],prevented toxicity elicited by DMSO
same,toxicity / survival,[5],no overt toxicity
same,protection in the 6-OHDA model,primary fibroblasts,conferred protection
same,lavage bacteria counts,"[6]; 5 mg/kg intraperitoneal at time of PA103, 18 h",no effect
same,lavage cell numbers,[6]; [14],significantly decreased
same,lavage cytokine levels,[6]; [14],significantly decreased
same,lavage protein,[6]; [14],significantly decreased
same,Pink1 protein stability upon inhibiting protein synthesis,Pink1 [7],largely stabilized Pink1
same,Pink1 protein levels in human lung explants,PINK1 [8],selectively increase Pink1 protein levels
same,MPP+ elicited injury (cell viability),SH-SY5Y cells,significantly decreased MPP+ elicited injury
same,cytokine release in response to endotoxin,[9],inhibit cytokine release
same,Pink1 levels after Fbxo7 siRNA treatment,Pink1 [10],not observed
same,protection from tBHP-induced mitochondrial injury,H9C2 cells [11],largely protected mitochondria from oxidative stress
same,mitochondrial injury (damaged mitochondria) after tBHP,"H9C2 cells [11]; tBHP with vehicle 45.3%, untreated 4.1%",26.1%
same,retraction and simplification of the dendritic arbor,"primary cortical neurons; 5 μg/ml, versus BC1465",protect against retraction and simplification of the dendritic arbor
same,cell death in primary cortical neurons,primary cortical neurons,reduce cell death
same,mitochondrial membrane potential disrupted by CCCP (JC1),H9C2 cells [12],maintains the mitochondrial membrane potential
"N#Cc1ccccc1Cn1c(=O)n(CCCC(=O)NCc2ccc3c(c2)OCO3)c(=O)c2ccccc21 [BC1465, reference compound]",Pink1 protein stability upon inhibiting protein synthesis,Pink1 [7],no effect on Pink1 protein stability
CC(C)C[C@@H](C=O)NC(=O)[C@H](CC(C)C)NC(=O)[C@H](CC(C)C)NC(=O)OCc1ccccc1 [MG132] (Cbz-Leu-Leu-Leu-aldehyde),Pink1 accumulation / turnover,Pink1 [13],"accumulated not only the Pink1 fragment, but also full length Pink1"
CC(=O)N[C@@H](CC(C)C)C(=O)N[C@@H](CC(C)C)C(=O)N[C@H](C=O)CCCNC(=N)N [leupeptin],Pink1 accumulation / turnover,Pink1 [13],little impact on basal Pink1 turnover
